Reference: patent publication US4397676A, “N-Phosphonomethylglycine derivatives” (Geshuri Laboratories Ltd., priority 1982, dated 1983)
Structures can show the parent of a compound that is named as a salt.

Assays:
[1] = Solubility of NPMG-iminourea salts in water; assay type: physicochemical
Experimental: SOLUBILITY OF NPMG-IMINOUREA SALTS
NPMG Salt 20° C. (in grams)

various plant species = details: background statement; cited from earlier work
[2] = background statement; cited from earlier work

O=C(O)CNCP(=O)(O)O [I, NPMG MONO (GUANIDINE) SALT]
Weight dissolved in 100 ml water at 20° C. [1]: 15.7 grams

O=C(O)CNCP(=O)(O)O [II, NPMG MONO (AMINOGUANIDINE) SALT]
water solubility (in words) ([1]; in words): highly water-soluble
content of active materials in solutions readily prepared ([1]; water as preferred diluent): ≤ 60 % by weight

O=C(O)CNCP(=O)(O)O [NPMG, N-phosphonomethylglycine]
herbicidal effect (in words) (various plant species): very effective phytotoxicant or herbicide
solubility in water and conventional organic solvents (in words) [2]: relatively insoluble in water and conventional organic solvents

O=C(O)CNCP(=O)(O)O [V, NPMG MONO (TETRA METHYL GUANIDINE) SALT]
Weight dissolved in 100 ml water at 20° C. ([1]; listed as 1,1,3,3 Tetra Methyl Guanidine): 165 grams
